According to article PMC5798451 (European journal of medicinal chemistry, 2017):
Where two headings read alike, the source gives them in different places.

Key:
HeLa cells [1] = assay: Apoptosis assay annexin-V-FITC/PI, HeLa; format: cell-based, human; conditions: for induction of apoptosis: 24 or 48 h, annexin-V-FITC/PI
HeLa = conditions: cited from earlier work
A549 [2] = conditions: cited from earlier work
HT-29 = conditions: cited from earlier work
RS4; 11 = conditions: cited from earlier work
Jurkat = conditions: cited from earlier work
[3] = test system: panel of 7 human tumor cell lines (HeLa, A549, HT-29, MDA-MB-231, RS4; 11, Jurkat, and Kasumi-1); assay: MTT antiproliferative assay, panel of 7 human tumor cell lines; format: cell-based; conditions: read-out: GI50s
bovine brain tubulin = bovine brain tubulin (Bos taurus, UniProt P81947+Q6B856); conditions: read-out: Inhibition of tubulin assembly IC50 ± SD; tubulin at 10 µM; ref [4]; cited from earlier work
tubulin = tubulin (Bos taurus, UniProt P81947+Q6B856); conditions: tubulin 1 µM, [3H]colchicine 5 µM; ref [4]; cited from earlier work
HeLa cells [4] = assay: Flow cytometric analysis of cell cycle distribution; format: cell-based, human; conditions: 24 h treatment, PI flow cytometry
A549 [5] = assay: Apoptosis assay annexin-V-FITC/PI, A549; format: cell-based, human; conditions: A549, 24 or 48 h
HeLa cells [6] = assay: Mitochondrial membrane potential; format: cell-based, human; conditions: 0.1–1.0 µM, 6-48 h, JC-1
HeLa cells [7] = assay: ROS production; format: cell-based, human; conditions: 1 µM, starting at 12–24 h, H2-DCFDA
HeLa cells [8] = assay: Western blot analysis of cell cycle and apoptosis proteins; format: cell-based, human

bovine brain tubulin, sequence (Q6B856 whole entry): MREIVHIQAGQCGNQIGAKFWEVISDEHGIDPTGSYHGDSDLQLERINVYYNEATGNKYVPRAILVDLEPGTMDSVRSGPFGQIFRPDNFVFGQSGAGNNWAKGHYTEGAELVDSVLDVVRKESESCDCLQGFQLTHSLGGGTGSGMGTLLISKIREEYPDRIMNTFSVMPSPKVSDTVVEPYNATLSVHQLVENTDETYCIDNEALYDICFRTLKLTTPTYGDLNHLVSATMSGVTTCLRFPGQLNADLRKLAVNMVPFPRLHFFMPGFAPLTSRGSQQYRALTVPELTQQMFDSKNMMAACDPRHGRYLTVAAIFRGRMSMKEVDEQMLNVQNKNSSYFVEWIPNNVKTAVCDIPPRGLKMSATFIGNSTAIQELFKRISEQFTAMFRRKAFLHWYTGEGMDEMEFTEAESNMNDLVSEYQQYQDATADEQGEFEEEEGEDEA
bovine brain tubulin, sequence (P81947 whole entry): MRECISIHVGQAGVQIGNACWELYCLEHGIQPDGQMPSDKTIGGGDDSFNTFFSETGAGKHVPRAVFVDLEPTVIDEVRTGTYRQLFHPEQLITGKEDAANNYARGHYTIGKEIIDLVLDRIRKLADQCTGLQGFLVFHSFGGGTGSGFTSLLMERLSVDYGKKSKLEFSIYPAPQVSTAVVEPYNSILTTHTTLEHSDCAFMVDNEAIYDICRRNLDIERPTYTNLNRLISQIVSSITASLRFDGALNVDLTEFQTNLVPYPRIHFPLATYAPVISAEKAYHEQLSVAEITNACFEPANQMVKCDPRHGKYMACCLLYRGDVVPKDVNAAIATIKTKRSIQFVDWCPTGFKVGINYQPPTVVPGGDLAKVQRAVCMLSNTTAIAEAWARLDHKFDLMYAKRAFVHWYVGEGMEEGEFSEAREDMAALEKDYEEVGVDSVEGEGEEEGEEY
tubulin, sequence (Q6B856 whole entry): as the sequence (Q6B856 whole entry) above
tubulin, sequence (P81947 whole entry): as the sequence (P81947 whole entry) above

In the case of `COc1ccc(/C=C\c2cc(OC)c(OC)c(OC)c2)cc1O` [CA-4, combretastatin A-4], the apoptotic response (HeLa cells [1]; 0.1 µM) is listed as “strong apoptotic response”, the GI50 (HeLa; ref [8] and [20]) is listed as 4 ± 1 nM and the GI50 (A549 [2]; ref [8] and [20]) is listed as 180 ± 50 nM. For the same compound, the GI50 (HT-29; ref [8] and [20]) was 3100 ± 100 nM, the GI50 (RS4; 11; ref [8] and [20]) was 0.8 ± 0.2 nM and the GI50 (Jurkat; ref [8] and [20]) was 5 ± 0.6 nM.
Compound `O=C1C=C(c2ccccc2)Nc2cccc3ccn1c23` [Compound 30, (Z)-2-phenyl-[1,4]diazepino[3,2,1-hi]indol-4(1H)-one] has an IC50 [3] greater than 10000 nM.
In the case of `CCn1ccc2c3c(=O)cc(-c4ccccc4)[nH]c3ccc21` [Compound 31, 3-ethyl-7-phenyl-3H-pyrrolo[3-2-f] quinolin-9-one], the GI50 (HeLa; ref [4] and [8]) is listed as 11 ± 8 nM, the GI50 (A549 [2]; ref [4] and [8]) is listed as 32 ± 1.5 nM and the GI50 (HT-29; ref [4] and [8]) is listed as 32 ± 1.2 nM. The GI50 (RS4; 11; ref [4] and [8]) was 2 ± 0.3 nM, the GI50 (Jurkat; ref [4] and [8]) was 0.5 ± 0.2 nM and the IC50 (bovine brain tubulin) was 570 ± 20 nM. For the same compound, the “Inhibition of colchicine binding % Inhibition ± SD” value (tubulin) was 73 ± 0.7%.
In the case of `CCn1ccc2c3c(=O)cc(-c4ccc5c(c4)CCCC5)[nH]c3ccc21` [Compound 23, 3-ethyl-7-(1,2,3,4-tetrahydronaphthalen-6-yl)-3H-pyrrolo[3,2-f]quinolin-9(6H)-one], the “effect on cell cycle progression” value (HeLa cells [4]) is reported as “induced a G2/M arrest”, the induction of apoptosis (HeLa cells [1]) is reported as “induced apoptosis in a time and concentration dependent manner” and the induction of apoptosis (A549 [5]) is reported as “induced apoptosis in a time and concentration dependent manner”.
For `CCn1ccc2c3c(=O)cc(-c4cccc5ccccc45)[nH]c3ccc21` [Compound 21, 3-ethyl-7-(naphthalen-1-yl)-3H-pyrrolo[3,2-f]quinolin-9(6H)-one], the “effect on cell cycle progression” value (HeLa cells [4]) was “induced a G2/M arrest”, the induction of apoptosis (HeLa cells [1]) was “induced apoptosis in a time and concentration dependent manner” and the induction of apoptosis (A549 [5]) was “induced apoptosis in a time and concentration dependent manner”.
In the case of `CCn1ccc2c3c(=O)cc(-c4ccc5c(c4)OCO5)[nH]c3ccc21` [Compound 24, 7-(benzo[d][1,3]dioxol-5-yl)-3-ethyl-3H-pyrrolo[3,2-f]quinolin-9(6H)-one], the “effect on cell cycle progression” value (HeLa cells [4]) is reported as “induced a G2/M arrest”, the induction of apoptosis (HeLa cells [1]) is reported as “induced apoptosis in a time and concentration dependent manner” and the induction of apoptosis (A549 [5]) is reported as “induced apoptosis in a time and concentration dependent manner”. The “mitochondrial transmembrane potential (Δψmt)” value (HeLa cells [6]) was “time-dependent increase in the percentage of cells with low Δψmt”, the ROS production (HeLa cells [7]) was “induced significant production of ROS” and the “expression of anti-apoptotic proteins Bcl-2 and Mcl-1” value (HeLa cells [8]; immunoblot, 50 nM) was “reduced the expression”. The PARP cleavage (HeLa cells [8]; western blot) was “concentration and time-dependent cleavage of poly (ADP-Ribose) polymerase (PARP)”, the “cyclin B1 expression” value (HeLa cells [8]; western blot, 24 and 48 h) was “increase in cyclin B1 expression” and the “phosphatase cdc25c expression” value (HeLa cells [8]; western blot, 24 h) was “reduction in the expression of phosphatase cdc25c”. For the same compound, the “phosphorylated cdc2 kinase” value (HeLa cells [8]; western blot, in particular after 48 h) was “decrease of the phosphorylated form of cdc2 kinase”.
